# Assay results reported in publication PMC10573254, “Development of Novel Class of Phenylpyrazolo[3,4-d]pyrimidine-Based Analogs with Potent Anticancer Activity and Multitarget Enzyme Inhibition Supported by Docking Studies” (International Journal of Molecular Sciences, 2023).
# Read-outs that look alike come from different tables or passages of the source.
# Key:
# VEGFR-2 = VEGFR-2 (Homo sapiens, UniProt P35968); experiment: In vitro VEGFR2 enzyme inhibitory assay; type: biochemical
# Description: (§1) Curve fitting was performed using GraphPad Prism.
# (§2) (1 picture or pasted object on this page, not shown here)
# Topo-II = target: T1, Topo-II (Homo sapiens, UniProt Q02880); experiment: In vitro Topo II inhibitory assay; type: biochemical
# T1 construct: purchased
# T1 sequence (Q02880 2-1626): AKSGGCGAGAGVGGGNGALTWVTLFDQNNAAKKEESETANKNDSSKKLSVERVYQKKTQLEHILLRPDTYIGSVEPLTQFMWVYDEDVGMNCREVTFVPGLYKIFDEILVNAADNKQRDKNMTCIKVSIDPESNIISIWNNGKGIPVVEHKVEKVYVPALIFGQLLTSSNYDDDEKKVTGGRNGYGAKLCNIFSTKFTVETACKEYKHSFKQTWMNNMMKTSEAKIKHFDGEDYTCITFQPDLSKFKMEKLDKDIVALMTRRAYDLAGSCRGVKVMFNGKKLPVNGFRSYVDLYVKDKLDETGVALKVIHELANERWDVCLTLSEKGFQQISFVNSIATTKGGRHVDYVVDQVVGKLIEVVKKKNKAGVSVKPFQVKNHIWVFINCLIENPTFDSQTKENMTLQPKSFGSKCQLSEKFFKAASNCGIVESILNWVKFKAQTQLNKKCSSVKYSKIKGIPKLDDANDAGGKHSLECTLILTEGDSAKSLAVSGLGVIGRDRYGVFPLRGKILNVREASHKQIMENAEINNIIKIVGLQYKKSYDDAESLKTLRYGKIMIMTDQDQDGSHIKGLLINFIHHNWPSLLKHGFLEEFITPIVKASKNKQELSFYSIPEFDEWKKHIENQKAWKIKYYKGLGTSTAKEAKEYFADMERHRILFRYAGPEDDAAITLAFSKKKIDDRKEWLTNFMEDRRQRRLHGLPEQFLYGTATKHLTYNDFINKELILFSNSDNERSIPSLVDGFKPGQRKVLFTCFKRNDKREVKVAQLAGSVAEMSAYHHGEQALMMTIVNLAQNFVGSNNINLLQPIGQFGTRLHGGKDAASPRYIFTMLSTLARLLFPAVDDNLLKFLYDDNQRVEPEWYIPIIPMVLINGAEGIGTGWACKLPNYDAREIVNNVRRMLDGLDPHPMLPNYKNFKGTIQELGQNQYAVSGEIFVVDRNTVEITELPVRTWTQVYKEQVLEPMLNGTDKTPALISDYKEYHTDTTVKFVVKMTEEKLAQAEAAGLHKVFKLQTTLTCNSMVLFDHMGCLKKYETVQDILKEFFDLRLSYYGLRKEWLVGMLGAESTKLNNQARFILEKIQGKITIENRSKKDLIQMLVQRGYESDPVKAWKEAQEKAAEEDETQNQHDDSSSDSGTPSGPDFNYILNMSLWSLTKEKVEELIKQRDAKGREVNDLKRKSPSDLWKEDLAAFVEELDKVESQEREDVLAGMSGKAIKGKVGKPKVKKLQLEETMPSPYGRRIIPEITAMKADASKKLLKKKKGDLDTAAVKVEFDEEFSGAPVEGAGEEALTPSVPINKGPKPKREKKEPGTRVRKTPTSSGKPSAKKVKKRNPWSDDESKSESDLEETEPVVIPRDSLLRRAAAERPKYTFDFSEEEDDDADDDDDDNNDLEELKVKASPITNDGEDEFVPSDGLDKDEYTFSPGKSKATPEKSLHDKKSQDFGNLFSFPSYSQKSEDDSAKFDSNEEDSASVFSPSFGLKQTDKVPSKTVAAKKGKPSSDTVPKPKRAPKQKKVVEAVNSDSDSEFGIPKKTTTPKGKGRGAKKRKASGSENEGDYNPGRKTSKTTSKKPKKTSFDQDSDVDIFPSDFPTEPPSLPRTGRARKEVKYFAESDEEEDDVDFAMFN
# Description: as §1, §2
# MCF-7 = experiment: MTT cytotoxicity assay, MCF-7; type: cell-based; conditions: Homo sapiens, MCF7
# Description: (§5) The cytotoxic activity was assessed using the 3-(4,5-dimethylthiazol-2-yl)-2,5-diphenyl tetrazolium bromide (MTT) colorimetric assay, as reported previously [62, 63]. […] Briefly, the designated cell lines were cultured at a concentration of 5 × 10^4 cell/well in 96-well plates. The cells were incubated for 24 h under optimum conditions. Following this, the designated molecules were introduced (in serial dilutions from 0 to 50 μg/mL), and the cells were incubated for an additional 24 h. Following this, the media were withdrawn, and 100 μL of fresh medium was added. Then, 10 µL of the 12 mM MTT stock solution was administered to each well. The plates were then incubated for 4 h. Then, the cells were exposed to different compounds at the desired concentrations (0.01, 0.1, 1, 10, and 100 µM) or to 1% dimethyl sulfoxide (DMSO) for 48 and 72 h. […] Then, the optical density was measured at 590 nm with the microplate reader (Sunrise, TECAN, Inc., Morrisville, NC, USA).
# HCT-116 = experiment: MTT cytotoxicity assay, HCT-116; type: cell-based; conditions: Homo sapiens
# Description: as §5
# WI-38 = experiment: MTT assay on normal cell line WI-38; type: cell-based; conditions: normal human diploid fibroblasts
# Description: (§3) According to our design, the tested compounds are classified into four categories based on the length and the chemotype of the spacer (Figure 3). In the first category, we used monosubstituted hydrazone linker. […] The second category is represented by […] hydrazone linker.
# (§4) The cytotoxic activity was assessed using the 3-(4,5-dimethylthiazol-2-yl)-2,5-diphenyl tetrazolium bromide (MTT) colorimetric assay, as reported previously. Doxorubicin was used as a reference standard, and DMSO was used as a negative control. Briefly, the designated cell lines were cultured at a concentration of 5 × 10^4 cell/well in 96-well plates. The cells were incubated for 24 h under optimum conditions. Following this, the designated molecules were introduced (in serial dilutions from 0 to 50 μg/mL), and the cells were incubated for an additional 24 h. Following this, the media were withdrawn, and 100 μL of fresh medium was added. Then, 10 µL of the 12 mM MTT stock solution was administered to each well. The plates were then incubated for 4 h. […] An 85-μL aliquot of the media was removed from the wells, and 50 µL of DMSO was added to each well and mixed thoroughly with the pipette and incubated at 37 °C for 10 min. Then, the optical density was measured at 590 nm with the microplate reader (Sunrise, TECAN, Inc., Morrisville, NC, USA).
# [1] = test system: MCF-7, HCT116, and HePG-2; experiment: MTT assay against three malignant cell lines (summary); type: cell-based; conditions: Homo sapiens, read-out: IC50 cytotoxicity (range over cell lines)
# Description: as §3, §4
# EGFR^T790M = EGFR^T790M (Homo sapiens, UniProt P00533, T790M); experiment: In vitro EGFR T790M kinase inhibitory assay
# Sequence of EGFR^T790M (P00533 25-1210 T790M): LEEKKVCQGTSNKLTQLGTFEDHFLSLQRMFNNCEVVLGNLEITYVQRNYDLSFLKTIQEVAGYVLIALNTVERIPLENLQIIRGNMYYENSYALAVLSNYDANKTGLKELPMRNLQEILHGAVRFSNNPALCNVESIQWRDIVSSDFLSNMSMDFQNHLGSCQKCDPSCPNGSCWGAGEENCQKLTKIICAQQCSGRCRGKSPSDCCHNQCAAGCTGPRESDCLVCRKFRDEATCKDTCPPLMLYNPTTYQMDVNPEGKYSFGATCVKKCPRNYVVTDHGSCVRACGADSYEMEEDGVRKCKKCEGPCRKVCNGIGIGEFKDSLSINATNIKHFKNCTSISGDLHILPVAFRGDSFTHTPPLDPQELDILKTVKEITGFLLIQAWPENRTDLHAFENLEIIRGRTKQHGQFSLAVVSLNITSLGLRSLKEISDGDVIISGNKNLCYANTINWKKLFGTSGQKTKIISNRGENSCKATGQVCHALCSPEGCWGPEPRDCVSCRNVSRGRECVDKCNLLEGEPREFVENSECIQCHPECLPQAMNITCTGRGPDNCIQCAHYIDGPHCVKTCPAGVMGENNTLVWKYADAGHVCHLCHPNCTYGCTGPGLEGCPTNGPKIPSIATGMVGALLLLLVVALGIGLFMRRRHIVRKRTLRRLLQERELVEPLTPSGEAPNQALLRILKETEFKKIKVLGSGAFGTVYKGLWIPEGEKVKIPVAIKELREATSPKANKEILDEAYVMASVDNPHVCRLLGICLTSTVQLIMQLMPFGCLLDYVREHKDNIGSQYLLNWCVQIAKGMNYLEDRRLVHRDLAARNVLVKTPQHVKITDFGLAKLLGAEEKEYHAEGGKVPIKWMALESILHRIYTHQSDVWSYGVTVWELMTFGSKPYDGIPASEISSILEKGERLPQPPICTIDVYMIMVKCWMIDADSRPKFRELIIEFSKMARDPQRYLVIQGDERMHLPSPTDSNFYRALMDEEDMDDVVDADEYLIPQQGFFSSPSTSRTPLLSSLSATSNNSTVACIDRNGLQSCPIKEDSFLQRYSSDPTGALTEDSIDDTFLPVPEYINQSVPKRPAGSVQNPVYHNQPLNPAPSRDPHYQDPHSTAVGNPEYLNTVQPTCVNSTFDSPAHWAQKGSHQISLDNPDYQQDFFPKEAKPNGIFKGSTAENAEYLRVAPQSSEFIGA
# Description: (§6) The assays were conducted in Vacsera (Giza, Egypt). Curve fitting was performed using GraphPad Prism. Data are represented as means ± SD from three independent experiments.
# Assay : EGFR-T490M kinase assay
# Reader : Tecan-spark reader
# Kit used : BPS bioscience EGFR assay kit.
# EGFR^WT = EGFR^WT (Homo sapiens, UniProt P00533); experiment: In vitro EGFR enzyme inhibitory assay; type: biochemical
# Description: as §6
# Reader : Tecan Spark Reader
# HePG-2 = experiment: MTT cytotoxicity assay, HePG-2; type: cell-based; conditions: Homo sapiens, HepG2
# Description: as §4
# Sequence of VEGFR-2 (P35968 20-1356): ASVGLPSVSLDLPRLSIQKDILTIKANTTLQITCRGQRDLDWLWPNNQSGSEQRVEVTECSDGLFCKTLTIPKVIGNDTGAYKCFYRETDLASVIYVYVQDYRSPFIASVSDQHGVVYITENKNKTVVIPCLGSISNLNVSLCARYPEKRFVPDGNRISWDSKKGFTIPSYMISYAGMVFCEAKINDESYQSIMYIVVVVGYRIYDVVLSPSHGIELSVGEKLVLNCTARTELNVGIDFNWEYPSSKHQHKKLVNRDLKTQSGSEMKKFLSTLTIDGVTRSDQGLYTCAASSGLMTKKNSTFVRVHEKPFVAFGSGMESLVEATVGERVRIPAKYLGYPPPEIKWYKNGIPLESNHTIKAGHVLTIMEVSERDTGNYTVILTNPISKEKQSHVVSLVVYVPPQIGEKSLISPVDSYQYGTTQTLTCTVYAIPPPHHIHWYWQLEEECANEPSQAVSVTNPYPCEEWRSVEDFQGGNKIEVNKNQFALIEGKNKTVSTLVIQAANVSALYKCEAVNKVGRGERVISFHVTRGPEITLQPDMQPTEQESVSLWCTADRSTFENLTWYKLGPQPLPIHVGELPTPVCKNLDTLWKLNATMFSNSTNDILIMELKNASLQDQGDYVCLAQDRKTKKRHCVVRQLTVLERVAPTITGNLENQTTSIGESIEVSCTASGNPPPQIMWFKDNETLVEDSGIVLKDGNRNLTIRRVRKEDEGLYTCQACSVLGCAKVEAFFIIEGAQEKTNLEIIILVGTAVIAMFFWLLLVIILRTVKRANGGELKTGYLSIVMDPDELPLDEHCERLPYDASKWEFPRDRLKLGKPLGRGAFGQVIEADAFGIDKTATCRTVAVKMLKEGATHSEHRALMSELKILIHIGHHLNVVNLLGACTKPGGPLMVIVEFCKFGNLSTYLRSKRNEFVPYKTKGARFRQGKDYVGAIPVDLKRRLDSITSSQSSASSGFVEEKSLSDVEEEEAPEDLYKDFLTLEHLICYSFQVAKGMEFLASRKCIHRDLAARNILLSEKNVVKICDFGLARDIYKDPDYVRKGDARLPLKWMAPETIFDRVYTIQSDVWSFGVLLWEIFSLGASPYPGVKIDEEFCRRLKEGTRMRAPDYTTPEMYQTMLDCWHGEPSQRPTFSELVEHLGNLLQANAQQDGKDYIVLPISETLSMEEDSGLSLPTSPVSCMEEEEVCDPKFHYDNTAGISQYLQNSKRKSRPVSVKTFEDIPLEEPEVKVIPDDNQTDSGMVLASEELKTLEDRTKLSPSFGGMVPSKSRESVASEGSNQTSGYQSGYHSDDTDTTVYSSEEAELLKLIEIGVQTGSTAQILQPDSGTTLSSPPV
compound,measurement,setting,value
"Cc1nc(NN=Cc2ccc(O)cc2)c2cnn(-c3ccccc3)c2n1 [Compound 5b, 4-((2-(6-Methyl-1-phenyl-1H-pyrazolo[3,4-d]pyrimidin-4-yl)hydrazineylidene)methyl)phenol]",VEGFR2 %inh at conc 0.01,"VEGFR-2; conc 0.01, unit not given",13%
same,VEGFR2 %inh at conc 0.1,"VEGFR-2; conc 0.1, unit not given",25%
same,VEGFR2 %inh at conc 1,"VEGFR-2; conc 1, unit not given",50%
same,VEGFR2 %inh at conc 10,"VEGFR-2; conc 10, unit not given",70%
same,target selectivity index EGFR over VGFR-2,"VEGFR-2; fold, EGFR^WT versus VGFR-2",20
same,IC50,VEGFR-2; read-out: IC50 VGFR2,15.7 ± 0.32 µM
same,IC50,"VEGFR-2; supplement lab report, read-out: VEGFR2 IC50 (lab report) (converted)",15.7 µM
same,TOPO IiB %inh at conc 0.1,"Topo-II; conc 0.1, unit not given",6.7%
same,TOPO IiB %inh at conc 1,"Topo-II; conc 1, unit not given",12%
same,TOPO IiB %inh at conc 10,"Topo-II; conc 10, unit not given",31%
same,TOPO IiB %inh at conc 100,"Topo-II; conc 100, unit not given",66%
same,IC50,Topo-II; read-out: IC50 Topo-II,108 ± 2.2 µM
same,IC50,"Topo-II; supplement lab report, Human DNA Topoisomerase 2B Kit, read-out: TOP2a IC50 (lab report) (converted)",108 µM
same,melting point,,162 to 164 °C
same,IC50,"MCF-7; 24 h incubation, read-out: IC50 MCF-7 24 h",10.5 ± 0.7 µM
same,IC50,"MCF-7; 48 h incubation, read-out: IC50 MCF-7 48 h",9.82 ± 0.9 µM
same,IC50,"MCF-7; 72 h incubation, read-out: IC50 MCF-7 72 h",5.16 ± 0.4 µM
same,IC50,"MCF-7; MTT, breast cancer cells, read-out: IC50 MCF-7",10.5 ± 0.7 µM
same,IC50,"HCT-116; HCT-116, read-out: IC50 HCT-116, MTT, colon cancer cells",5.65 ± 0.3 µM
same,IC50,"HCT-116; HCT-116, 24 h incubation, read-out: IC50 HCT116 24 h",5.65 ± 0.3 µM
same,IC50,"HCT-116; HCT-116, 48 h incubation, read-out: IC50 HCT116 48 h",9.82 ± 0.9 µM
same,IC50,"HCT-116; HCT-116, 72 h incubation, read-out: IC50 HCT116 72 h",4.09 ± 0.3 µM
same,IC50,"WI-38; Homo sapiens, WI-38, MTT",> 35 µM
same,IC50,WI-38; MTT,35 ± 0.3 µM
same,IC50,[1],3 to 10 µM
same,IC50,EGFR^T790M,1.93 ± 0.08 µM
same,EGFR T790M %inh at conc 0.01,EGFR^T790M; conc 0.01 (conc.ng/ml),37%
same,EGFR T790M %inh at conc 0.1,EGFR^T790M; conc 0.1 (conc.ng/ml),54%
same,EGFR T790M %inh at conc 1,EGFR^T790M; conc 1 (conc.ng/ml),77%
same,EGFR T790M %inh at conc 10,EGFR^T790M; conc 10 (conc.ng/ml),87%
same,EGFR %inh at conc 0.01,"EGFR^WT; conc 0.01, unit not given",28%
same,EGFR %inh at conc 0.1,"EGFR^WT; conc 0.1, unit not given",46%
same,EGFR %inh at conc 1,"EGFR^WT; conc 1, unit not given",71%
same,EGFR %inh at conc 10,"EGFR^WT; conc 10, unit not given",87%
same,IC50,"EGFR^WT; supplement lab report, read-out: EGFR IC50 (lab report) (converted)",0.366 µM
same,IC50,"HePG-2; 24 h incubation, read-out: IC50 HePG-2 24 h",9.12 ± 0.7 µM
same,IC50,"HePG-2; 48 h incubation, read-out: IC50 HePG-2 48 h",7.6 ± 0.7 µM
same,IC50,"HePG-2; 72 h incubation, read-out: IC50 HePG-2 72 h",5.16 ± 0.4 µM
same,IC50,"HePG-2; MTT, liver cancer cells, read-out: IC50 HePG-2",9.12 ± 0.7 µM
